SMILES | melting point [°C]
CN1CCN(C(=O)c2ccc3cc(-c4csc(N(C)S(=O)(=O)c5ccccc5)n4)c(=O)[nH]c3c2)CC1 [Example 8765, N-Methyl-N-{4-[7-(4-methyl-piperazine-1-carbonyl)-2-oxo-1,2-dihydro-quinolin-3-yl]-thiazol-2-yl}-benzenesulfonamide] | 242 to 247
CCNC(=O)c1ccc2cc(-c3csc(N(C)S(=O)(=O)c4ccccc4)n3)c(=O)[nH]c2c1 [Example 8766, 3-[2-(Benzenesulfonyl-methyl-amino)-thiazol-4-yl]-2-oxo-1,2-dihydro-quinoline-7-carboxylic acid ethylamide] | > 300
CCN(CC)C(=O)c1ccc2cc(-c3csc(N(C)S(=O)(=O)c4ccccc4)n3)c(=O)[nH]c2c1 [Example 8767, N,N-Diethyl-3-(2-(methyl(phenylsulfonyl)amino)-1,3-thiazol-4-yl)-2-oxo-1,2-dihydro-7-quinolinecarboxamide] | 200 to 202
CN(C)CCN(C)C(=O)c1ccc2cc(-c3csc(N(C)S(=O)(=O)c4ccccc4)n3)c(=O)[nH]c2c1 [Example 8788, 3-[2-(Benzenesulfonyl-methyl-amino)-thiazol-4-yl]-2-oxo-1,2-dihydro-quinoline-7-carboxylic acid (2-dimethylamino-ethyl)-methyl-amide] | 144 to 148
O=c1[nH]c2ccccc2cc1-c1csc(NS(=O)(=O)c2ccc(Cl)cc2)n1 [Example 8789, 4-Chloro-N-(4-(2-oxo-1,2-dihydro-3-quinolinyl)-1,3-thiazol-2-yl)benzenesulfonamide] | > 300
